Measurements taken from the CheMixHub viscosity set.

Assay: xn = mol fraction of the nth substance listed

CC(=O)c1ccc(C)cc1 + CCNc1ccccc1
303.15 K, 100 kPa
Conditions	viscosity [mPa·s]
x2 = 0.0838	1.587
x2 = 0.1427	1.592
x2 = 0.2179	1.601
x2 = 0.2904	1.608
x2 = 0.3608	1.616
x2 = 0.4284	1.625
x2 = 0.4942	1.635
x2 = 0.5577	1.645
x2 = 0.6194	1.656
x2 = 0.6889	1.67
x2 = 0.7467	1.683
x2 = 0.8128	1.697
x2 = 0.9072	1.718

CCCCC(CC)COP(=O)(O)OCC(CC)CCCC (centres undefined) + CCO
303.15 K, 101 kPa
Conditions	viscosity [mPa·s]
x1 = 0.0484	1.909
x1 = 0.086	2.633
x1 = 0.1497	3.874
x1 = 0.246	5.98
x1 = 0.3456	8.285
x1 = 0.4132	9.819
x1 = 0.5228	12.07
x1 = 0.6182	13.82
x1 = 0.7125	15.38
x1 = 0.8312	17.13
x1 = 0.9224	18.43

C[N+](=O)[O-] + CCO
viscosity [mPa·s]
Conditions	293.15 K	298.15 K	303.15 K	313.15 K
101 kPa, x1 = 0.1074	–	0.9963	–	–
101 kPa, x1 = 0.2135	–	0.9148	–	–
101 kPa, x1 = 0.3174	–	0.84	–	–
101 kPa, x1 = 0.4199	–	0.777	–	–
101 kPa, x1 = 0.5202	–	0.7236	–	–
101 kPa, x1 = 0.6192	–	0.6847	–	–
101 kPa, x1 = 0.7167	–	0.6557	–	–
101 kPa, x1 = 0.8126	–	0.6418	–	–
101 kPa, x1 = 0.9071	–	0.637	–	–
101.33 kPa, x2 = 0.0501	0.625	–	0.553	0.501
101.33 kPa, x2 = 0.1001	0.609	–	0.538	0.486
101.33 kPa, x2 = 0.15	0.602	–	0.53	0.477
101.33 kPa, x2 = 0.2	0.601	–	0.527	0.472
101.33 kPa, x2 = 0.2501	0.604	–	0.527	0.471
101.33 kPa, x2 = 0.3001	0.612	–	0.531	0.472
101.33 kPa, x2 = 0.3502	0.622	–	0.538	0.476
101.33 kPa, x2 = 0.4008	0.636	–	0.547	0.482
101.33 kPa, x2 = 0.4501	0.653	–	0.561	0.491
101.33 kPa, x2 = 0.5001	0.672	–	0.577	0.502
101.33 kPa, x2 = 0.55	0.695	–	0.594	0.516
101.33 kPa, x2 = 0.6	0.72	–	0.612	0.531
101.33 kPa, x2 = 0.65	0.75	–	0.633	0.547
101.33 kPa, x2 = 0.7	0.785	–	0.665	0.569
101.33 kPa, x2 = 0.75	0.825	–	0.698	0.595
101.33 kPa, x2 = 0.8	0.872	–	0.732	0.625
101.33 kPa, x2 = 0.85	0.936	–	0.782	0.662
101.33 kPa, x2 = 0.9	1.006	–	0.835	0.705
101.33 kPa, x2 = 0.95	1.086	–	0.901	0.759

C[N+](=O)[O-] + CCOC(C)=O
298.15 K, 101 kPa
Conditions	viscosity [mPa·s]
x1 = 0.1688	0.4555
x1 = 0.3141	0.4808
x1 = 0.4395	0.5046
x1 = 0.55	0.526
x1 = 0.6469	0.5465
x1 = 0.733	0.5651
x1 = 0.8102	0.5828
x1 = 0.8801	0.5995
x1 = 0.9429	0.6154

CC(=O)c1ccc(C)cc1 + CN(C)c1ccccc1
viscosity [mPa·s], 101 kPa
Conditions	303.15 K	308.15 K
x2 = 0.0481	1.541	1.493
x2 = 0.0942	1.512	1.462
x2 = 0.1558	1.478	1.428
x2 = 0.2311	1.442	1.39
x2 = 0.2972	1.411	1.359
x2 = 0.3584	1.382	1.33
x2 = 0.4254	1.356	1.303
x2 = 0.4949	1.331	1.275
x2 = 0.5492	1.31	1.252
x2 = 0.5964	1.295	1.234
x2 = 0.6887	1.264	1.204
x2 = 0.7635	1.24	1.181
x2 = 0.8596	1.213	1.149

CC(=O)c1ccc(C)cc1 + CNC(C)=O
308.15 K, 101 kPa
Conditions	viscosity [mPa·s]
x1 = 0.0617	3.091
x1 = 0.1321	2.867
x1 = 0.2004	2.666
x1 = 0.2836	2.469
x1 = 0.3629	2.286
x1 = 0.4632	2.08
x1 = 0.5582	1.927
x1 = 0.689	1.722
x1 = 0.8305	1.588

[Br-].[Br-].[Br-].[Sb+3] + CNc1ccccc1
323.15 K, 101 kPa
Conditions	viscosity [mPa·s]
x1 = 0.25	21.03
x1 = 0.333	107.7
x1 = 0.4	507
x1 = 0.45	1423
x1 = 0.5	2867
x1 = 0.53	3472
x1 = 0.55	3692
x1 = 0.57	3331
x1 = 0.6	2686
x1 = 0.65	1275

CCCCC(CC)COP(=O)(O)OCC(CC)CCCC (centres undefined) + CO
303.15 K, 101 kPa
Conditions	viscosity [mPa·s]
x1 = 0.0413	1.349
x1 = 0.0751	2.075
x1 = 0.1088	2.893
x1 = 0.1723	4.725
x1 = 0.2681	7.099
x1 = 0.3639	9.284
x1 = 0.4602	11.18
x1 = 0.6161	13.99
x1 = 0.7023	15.23
x1 = 0.8292	17.17
x1 = 0.928	18.67

C[N+](=O)[O-] + CO
viscosity [mPa·s]
Conditions	293.15 K	298.15 K	303.15 K	313.15 K
101 kPa, x1 = 0.0771	–	0.5277	–	–
101 kPa, x1 = 0.1586	–	0.5151	–	–
101 kPa, x1 = 0.216	–	0.503	–	–
101 kPa, x1 = 0.238	–	0.502	–	–
101 kPa, x1 = 0.24	–	0.501	–	–
101 kPa, x1 = 0.244	–	0.5	–	–
101 kPa, x1 = 0.2441	–	0.5082	–	–
101 kPa, x1 = 0.3345	–	0.5081	–	–
101 kPa, x1 = 0.4298	–	0.5102	–	–
101 kPa, x1 = 0.496	–	0.495	–	–
101 kPa, x1 = 0.5305	–	0.5169	–	–
101 kPa, x1 = 0.539	–	0.497	–	–
101 kPa, x1 = 0.579	–	0.5	–	–
101 kPa, x1 = 0.6375	–	0.5265	–	–
101 kPa, x1 = 0.7509	–	0.5426	–	–
101 kPa, x1 = 0.861	–	0.55	–	–
101 kPa, x1 = 0.863	–	0.55	–	–
101 kPa, x1 = 0.8715	–	0.5721	–	–
101 kPa, x1 = 0.875	–	0.554	–	–
101.33 kPa, x2 = 0.0503	0.617	–	0.551	0.493
101.33 kPa, x2 = 0.1004	0.596	–	0.528	0.473
101.33 kPa, x2 = 0.15	0.575	–	0.511	0.458
101.33 kPa, x2 = 0.2003	0.561	–	0.498	0.445
101.33 kPa, x2 = 0.2501	0.552	–	0.489	0.435
101.33 kPa, x2 = 0.3	0.542	–	0.479	0.427
101.33 kPa, x2 = 0.3502	0.536	–	0.474	0.421
101.33 kPa, x2 = 0.4	0.531	–	0.469	0.416
101.33 kPa, x2 = 0.4501	0.527	–	0.464	0.412
101.33 kPa, x2 = 0.5	0.525	–	0.461	0.408
101.33 kPa, x2 = 0.55	0.524	–	0.459	0.406
101.33 kPa, x2 = 0.6001	0.524	–	0.459	0.405
101.33 kPa, x2 = 0.65	0.525	–	0.458	0.405
101.33 kPa, x2 = 0.7	0.526	–	0.461	0.406
101.33 kPa, x2 = 0.7501	0.53	–	0.463	0.409
101.33 kPa, x2 = 0.8	0.538	–	0.468	0.412
101.33 kPa, x2 = 0.8501	0.545	–	0.474	0.417
101.33 kPa, x2 = 0.9	0.553	–	0.482	0.423
101.33 kPa, x2 = 0.95	0.566	–	0.491	0.432

N + CO
viscosity [mPa·s], 100 kPa
Conditions	303 K	313 K
x1 = 0.16	0.48	0.4
x1 = 0.23	0.48	0.39

C[N+](=O)[O-] + COC(C)=O
298.15 K, 101 kPa
Conditions	viscosity [mPa·s]
x1 = 0.1415	0.4094
x1 = 0.271	0.4445
x1 = 0.3891	0.4757
x1 = 0.498	0.5048
x1 = 0.5977	0.5313
x1 = 0.6903	0.5553
x1 = 0.7763	0.5776
x1 = 0.8562	0.5968
x1 = 0.9303	0.6147
